Results on 3 compounds are retold here after publication PMC8794222 (Photochemistry and photobiology, 2020).

Assay [1] deals with T1, extracellular domain of EGFR protein (Homo sapiens, UniProt P00533). The settings on record: cited from earlier work.
The target in assay [2] is T1, extracellular domain of EGFR protein. The experiment in a line: SPR analysis on immobilized EGFR extracellular domain. The following applies: analyte up to 250 μM, HBS-EP+ with 4% DMSO. It counts as binding. A general note: SPR reads the build-up and loss of mass on a sensor chip optically.

Ends that are not written are not given here.

Regarding “2: EGFR-L1 sequence modified with a glycine spacer, amide terminus (GLARLLT-NH2) [compound 2]”, the “Association and dissociation with EGFR ECD by SPR (in words)” value in assay [1] (earlier studies) was “fast association and dissociation”.

Turning to `CC1=CC(C)=[N+]2C1=C(CCCC(=O)O)c1c(C)cc(C)n1[B-]2(F)F` [BODIPY 1], the “Kind of binding to EGFR ECD in SPR sensorgram (in words)” value in assay [2] was “non-specific binding”.

Take cyclo(K(N3)larllt) [reference compound]: in assay [1] (previously shown), the “Binding to EGFR (in words)” value is “high affinity”.
